Results published in ChEMBL document CHEMBL1201862, “PubChem BioAssay data set” (2004).
Activity calls are given as the source filed them.

Legend:
[1] = target: Photoreceptor-specific nuclear receptor (Homo sapiens, UniProt Q9Y5X4); format: functional, cell-based;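 note: CHO-S cells with Gal4-NCOR and VP16-NR2E3 two-hybrid luciferase reporter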
[2] = target: T1, Sentrin-specific protease 1 (Homo sapiens, UniProt Q9P0U3); experiment: potency of human SENP1 inhibitors, dose response, biochemical, kinetic FRET (AID 651697); format: functional; details: read-out: IC50_Mean
[3] = target: T2, Zinc finger protein mex-5 (Caenorhabditis elegans, UniProt Q9XUB2); experiment: MEX-5/TCR-2 RNA interaction inhibitors, dose response, biochemical, C. elegans, fluorescence polarization (AID 1960)
T2 sequence (Q9XUB2 whole entry): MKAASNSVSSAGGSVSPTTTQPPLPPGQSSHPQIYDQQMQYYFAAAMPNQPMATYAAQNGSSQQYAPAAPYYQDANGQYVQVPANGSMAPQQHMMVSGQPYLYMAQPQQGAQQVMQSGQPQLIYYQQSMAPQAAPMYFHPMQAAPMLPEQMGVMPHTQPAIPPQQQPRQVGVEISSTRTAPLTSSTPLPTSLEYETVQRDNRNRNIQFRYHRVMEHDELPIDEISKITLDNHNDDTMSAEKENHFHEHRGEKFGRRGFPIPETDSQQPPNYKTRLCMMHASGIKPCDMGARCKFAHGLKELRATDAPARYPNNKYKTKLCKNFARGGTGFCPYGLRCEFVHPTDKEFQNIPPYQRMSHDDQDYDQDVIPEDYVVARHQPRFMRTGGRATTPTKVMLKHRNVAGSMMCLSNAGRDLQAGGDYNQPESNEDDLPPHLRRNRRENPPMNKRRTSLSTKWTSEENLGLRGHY

[4] = target: T3, RNA-binding protein pos-1 (Caenorhabditis elegans, UniProt G5EF15); experiment: inhibitors of POS-1/mex-3 RNA binding, dose response, biochemical, fluorescence polarization (AID 1964);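 note: purified POS-1 fused to maltose binding protein made in E. coli; potency of compounds blocking POS-1 binding to fluorescent RNA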
T3 sequence (G5EF15 whole entry): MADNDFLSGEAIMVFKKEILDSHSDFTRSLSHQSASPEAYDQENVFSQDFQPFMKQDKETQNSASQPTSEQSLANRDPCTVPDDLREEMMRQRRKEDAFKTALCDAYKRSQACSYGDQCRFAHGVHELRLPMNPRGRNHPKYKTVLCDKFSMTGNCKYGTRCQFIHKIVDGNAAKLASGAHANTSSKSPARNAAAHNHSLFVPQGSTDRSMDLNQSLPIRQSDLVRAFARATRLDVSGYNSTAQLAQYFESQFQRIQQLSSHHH

[5] = target: T1, Sentrin-specific protease 1; experiment: Dose response confirmation of small molecule inhibitors of the catalytic domain of the SUMO protease, SENP1 in a FRET assay.; format: functional; details: read-out: IC50_Mean
[6] = target: Tyrosine-protein phosphatase non-receptor type 11 (Homo sapiens, UniProt Q06124); experiment: SHP2 phosphatase inhibition, dose response, selectivity assay for STEP inhibitor project, biochemical (AID 602367); format: functional; details: read-out: IC50_Mean
[7] = target: Dual specificity protein phosphatase 3 (Homo sapiens, UniProt P51452); experiment: VHR phosphatase inhibition, dose response, selectivity assay for STEP inhibitor project, biochemical (AID 602374); format: functional; details: read-out: IC50_Mean
[8] = target: Tyrosine-protein phosphatase non-receptor type 5 (Homo sapiens, UniProt P54829); experiment: STEP phosphatase inhibitors, confirmation, biochemical, fluorescence intensity, uHTS hits (AID 602372); format: functional; details: read-out: IC50_Mean
[9] = target: T4, Tyrosine-protein phosphatase non-receptor type 22 (Homo sapiens, UniProt Q9Y2R2); experiment: PTPN22 phosphatase inhibition, dose response, selectivity assay for STEP inhibitor project, biochemical (AID 624241); format: functional
T4 sequence (Q9Y2R2 whole entry): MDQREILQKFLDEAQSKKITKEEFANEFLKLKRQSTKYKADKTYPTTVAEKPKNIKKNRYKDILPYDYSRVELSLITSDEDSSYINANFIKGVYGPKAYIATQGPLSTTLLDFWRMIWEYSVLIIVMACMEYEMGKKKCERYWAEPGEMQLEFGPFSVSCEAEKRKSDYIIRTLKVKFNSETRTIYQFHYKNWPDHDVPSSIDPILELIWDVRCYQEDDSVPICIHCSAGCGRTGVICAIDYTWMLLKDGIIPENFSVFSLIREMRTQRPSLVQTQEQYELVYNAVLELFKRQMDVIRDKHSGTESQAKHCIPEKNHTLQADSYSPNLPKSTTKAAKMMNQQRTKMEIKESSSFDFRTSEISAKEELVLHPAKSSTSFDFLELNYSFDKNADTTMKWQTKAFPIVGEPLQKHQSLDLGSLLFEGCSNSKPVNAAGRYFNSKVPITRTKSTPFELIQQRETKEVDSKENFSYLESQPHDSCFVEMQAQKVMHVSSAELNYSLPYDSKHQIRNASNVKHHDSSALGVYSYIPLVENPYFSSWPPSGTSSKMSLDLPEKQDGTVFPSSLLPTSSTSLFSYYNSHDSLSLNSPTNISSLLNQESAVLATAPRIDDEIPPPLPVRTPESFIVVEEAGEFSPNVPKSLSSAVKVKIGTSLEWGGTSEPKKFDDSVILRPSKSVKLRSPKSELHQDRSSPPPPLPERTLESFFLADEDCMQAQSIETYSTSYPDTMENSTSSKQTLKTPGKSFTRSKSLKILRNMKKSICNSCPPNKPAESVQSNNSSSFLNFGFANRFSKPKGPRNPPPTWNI

[10] = target: T5, Sentrin-specific protease 8 (Homo sapiens, UniProt Q96LD8); format: functional
T5 sequence (Q96LD8 whole entry): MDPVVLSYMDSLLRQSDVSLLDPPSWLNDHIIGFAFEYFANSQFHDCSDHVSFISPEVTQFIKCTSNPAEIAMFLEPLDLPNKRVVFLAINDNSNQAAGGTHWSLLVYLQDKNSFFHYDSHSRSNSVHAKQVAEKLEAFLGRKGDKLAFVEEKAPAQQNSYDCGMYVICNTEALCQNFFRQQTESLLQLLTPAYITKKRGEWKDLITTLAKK

Caspase-3 = target: T6, Caspase-3 (Homo sapiens, UniProt P42574); experiment: Dose-response confirmation of uHTS inhibitor hits of Sentrin-Specific Protease 8 in a Caspase-3 Fluorescence assay.; format: functional
T6 sequence (P42574 whole entry): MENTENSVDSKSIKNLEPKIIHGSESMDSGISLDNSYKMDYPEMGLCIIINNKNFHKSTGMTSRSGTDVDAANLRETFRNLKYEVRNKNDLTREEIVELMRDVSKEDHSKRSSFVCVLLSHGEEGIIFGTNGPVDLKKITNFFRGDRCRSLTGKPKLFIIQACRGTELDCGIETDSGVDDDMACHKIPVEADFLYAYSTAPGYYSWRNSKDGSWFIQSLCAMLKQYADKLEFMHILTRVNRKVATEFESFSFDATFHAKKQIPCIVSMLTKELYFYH

[11] = target: T5, Sentrin-specific protease 8; format: functional; remark: listed apart in the source
[12] = target: Potassium voltage-gated channel subfamily KQT member 2 (Rattus norvegicus, UniProt O88943); experiment: KCNQ2 potassium channel inhibitors, dose response, cell-based, automated electrophysiology, set II, rat KCNQ2 (AID 588637); format: functional
[13] = miR-122 activators in hepatoma reporter cells, dose response, cell-based, Huh7 psiCHECK-miR122, Renilla luciferase, cherry-picked (AID 651956); format: functional;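 note: huh7 hepatoma cells stably carrying a psiCHECK-2 miR-122 sensor plasmid; renilla luciferase signal reporting endogenous miR-122 activity after 48 h compound exposure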
[14] = HepG2 cell cytotoxicity, dose response, cytotoxicity control for Shn3 inhibitor project, CellTiter-Glo, cherry-picked (AID 624134); format: functional, cell-based
Paired box protein Pax-8 = Paired box protein Pax-8 (Homo sapiens, UniProt Q06710); experiment: inhibitors of PAX8-driven TPO luciferase reporter, dose response, RMG-I cells, cherry-pick (AID 687027); format: functional, cell-based;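 note: luciferase reporter driven by Pax8 target thyroperoxidase promoter measured by SteadyGlo luminescence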
[15] = Fluorescence-based cell-based high throughput dose response assay for inhibitors of the interaction of nucleotide-binding oligomerization domain containing 2 (NOD2) and the receptor-interacting serine-threonine kinase 2 (RIPK2).; format: functional; details: Homo sapiens
Beta Lactamase = Beta Lactamase (Pseudomonas aeruginosa, UniProt Q932Y6); experiment: beta-lactamase reporter inhibitor potency, dose response, artefact control for NOD2-RIPK2 interaction inhibitor project, BLA reporter cells, FRET fluorescence (AID 651552); format: functional, cell-based
[16] = Shn3 3'UTR reporter inhibitors, dose response, cell-based, Clone20 osteoblasts, firefly luciferase, cherry-picked (AID 624132); format: functional;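 note: firefly luciferase luminescence from reporter carrying the Shn3 3'UTR in osteoblasts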
[17] = non-specific cell cytotoxicity, dose response, cytotoxicity control for PAX8 inhibitor project, plate reader, dry powder samples (AID 743021); format: functional, cell-based
[18] = control 3'UTR Renilla luciferase suppression, dose response, counter-screen for Shn3 inhibitor project, cell-based, Clone20-Shn3RL, cherry-picked (AID 624133); format: functional
[19] = StAR promoter reporter inhibition counter-screen, dose response, counter-screen for LRH-1 inverse agonist project, cell-based, luminescence, luciferase reporter (AID 651969); format: functional
[20] = target: Nuclear receptor subfamily 5 group A member 2 (Homo sapiens, UniProt O00482); format: functional, cell-based;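 note: HEK293T cells transfected with LRH-1 and a StAR promoter luciferase reporter; potency for inhibitors that lower LRH-1 driven reporter light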
Steroidogenic factor 1 = Steroidogenic factor 1 (Homo sapiens, UniProt Q13285); experiment: Counterscreen for inverse agonists of the liver receptor homolog-1 (LRH-1; NR5A2): Luminescence-based cell-based high throughput dose response assay to identify inverse agonists of the Steroidogenic Factor 1 Nuclear Receptor (SF1; NR5A1).; format: functional
[21] = target: T7, Apoptotic protease-activating factor 1 (Homo sapiens, UniProt O14727); experiment: SAR analysis of small molecule Activators of Apaf-1 in a Fluorescent assay.; format: functional; details: read-out: EC50_Mean;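 note: caspase-3 cleavage of fluorogenic Rh110 DEVD substrate downstream of apoptosome activation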
T7 sequence (O14727 whole entry): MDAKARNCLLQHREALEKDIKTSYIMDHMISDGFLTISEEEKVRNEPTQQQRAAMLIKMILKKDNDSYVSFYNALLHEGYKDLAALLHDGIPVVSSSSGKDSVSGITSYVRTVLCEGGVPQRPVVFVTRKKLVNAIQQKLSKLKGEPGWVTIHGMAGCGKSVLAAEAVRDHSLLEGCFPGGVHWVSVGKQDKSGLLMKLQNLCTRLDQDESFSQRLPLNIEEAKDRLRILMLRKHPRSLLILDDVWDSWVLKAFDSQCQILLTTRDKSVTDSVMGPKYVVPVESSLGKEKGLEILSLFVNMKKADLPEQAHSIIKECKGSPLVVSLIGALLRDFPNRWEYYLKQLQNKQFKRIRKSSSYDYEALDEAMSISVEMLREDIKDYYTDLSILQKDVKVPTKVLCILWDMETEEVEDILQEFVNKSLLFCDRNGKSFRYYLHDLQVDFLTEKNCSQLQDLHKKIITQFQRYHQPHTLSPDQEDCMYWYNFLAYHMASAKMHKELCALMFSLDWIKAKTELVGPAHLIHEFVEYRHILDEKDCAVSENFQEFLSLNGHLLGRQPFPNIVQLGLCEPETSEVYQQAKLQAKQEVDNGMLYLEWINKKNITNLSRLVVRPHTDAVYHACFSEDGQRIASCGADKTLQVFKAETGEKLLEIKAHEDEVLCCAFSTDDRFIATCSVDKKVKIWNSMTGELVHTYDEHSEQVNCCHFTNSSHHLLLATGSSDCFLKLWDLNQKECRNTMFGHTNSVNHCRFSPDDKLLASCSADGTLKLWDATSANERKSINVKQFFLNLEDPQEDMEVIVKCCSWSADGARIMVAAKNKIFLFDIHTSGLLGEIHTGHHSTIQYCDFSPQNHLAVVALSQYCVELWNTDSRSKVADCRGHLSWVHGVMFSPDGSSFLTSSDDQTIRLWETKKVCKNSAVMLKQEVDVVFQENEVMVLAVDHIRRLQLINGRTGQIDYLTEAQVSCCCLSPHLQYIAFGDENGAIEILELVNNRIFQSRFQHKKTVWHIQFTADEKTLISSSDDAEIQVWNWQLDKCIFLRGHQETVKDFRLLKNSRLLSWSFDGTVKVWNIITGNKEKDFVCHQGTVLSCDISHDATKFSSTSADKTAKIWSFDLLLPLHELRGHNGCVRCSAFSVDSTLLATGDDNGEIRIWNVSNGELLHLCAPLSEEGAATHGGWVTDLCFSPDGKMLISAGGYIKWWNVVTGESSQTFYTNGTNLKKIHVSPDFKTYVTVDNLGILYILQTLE

[22] = target: Matrix metalloproteinase-14 (Homo sapiens, UniProt P50281); experiment: Dose Response confirmation of uHTS hits for a small molecule inhibitors of MT1-MMP activation in a fluorescence assay set 1.; format: functional
[23] = target: ADP-ribosylation factor GTPase-activating protein 1 (Rattus norvegicus, UniProt Q62848); experiment: Fluorescence polarization-based biochemical high throughput dose response screening assay to identify inhibitors of ADP-ribosylation factor GTPase activating protein 1 (ARFGAP1).; format: functional
Chain of ADP-ribosylation factor GTPase-activating protein 1 (Q62848 whole entry): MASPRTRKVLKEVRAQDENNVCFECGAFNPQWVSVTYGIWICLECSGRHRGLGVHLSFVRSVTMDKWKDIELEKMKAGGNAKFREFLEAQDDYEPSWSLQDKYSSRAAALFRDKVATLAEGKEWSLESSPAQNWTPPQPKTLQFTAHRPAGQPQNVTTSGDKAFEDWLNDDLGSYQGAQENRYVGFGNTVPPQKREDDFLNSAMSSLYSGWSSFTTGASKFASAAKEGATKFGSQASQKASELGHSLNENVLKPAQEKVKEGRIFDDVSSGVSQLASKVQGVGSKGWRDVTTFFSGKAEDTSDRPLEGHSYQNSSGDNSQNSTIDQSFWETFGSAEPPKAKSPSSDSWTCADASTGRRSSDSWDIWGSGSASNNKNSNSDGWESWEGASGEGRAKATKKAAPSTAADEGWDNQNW

T1 sequence (Q9P0U3 whole entry): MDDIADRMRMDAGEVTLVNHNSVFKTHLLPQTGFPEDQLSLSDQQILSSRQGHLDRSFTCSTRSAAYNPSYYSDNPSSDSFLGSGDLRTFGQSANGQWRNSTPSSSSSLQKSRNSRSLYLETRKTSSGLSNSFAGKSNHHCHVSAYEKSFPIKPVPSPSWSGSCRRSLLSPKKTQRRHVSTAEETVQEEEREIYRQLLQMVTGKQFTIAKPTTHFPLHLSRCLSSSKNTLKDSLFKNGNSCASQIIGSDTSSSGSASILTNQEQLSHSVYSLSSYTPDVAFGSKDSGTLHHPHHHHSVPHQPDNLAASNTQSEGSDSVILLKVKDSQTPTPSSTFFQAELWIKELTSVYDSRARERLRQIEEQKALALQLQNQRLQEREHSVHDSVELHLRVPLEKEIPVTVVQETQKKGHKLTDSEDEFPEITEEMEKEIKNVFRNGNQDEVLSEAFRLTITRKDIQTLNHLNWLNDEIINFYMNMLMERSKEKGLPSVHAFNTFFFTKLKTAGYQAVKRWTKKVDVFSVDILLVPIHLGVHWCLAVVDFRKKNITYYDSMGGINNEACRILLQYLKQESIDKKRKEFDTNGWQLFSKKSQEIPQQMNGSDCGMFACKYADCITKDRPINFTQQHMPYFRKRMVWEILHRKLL
Chain of Dual specificity protein phosphatase 3 (P51452 whole entry): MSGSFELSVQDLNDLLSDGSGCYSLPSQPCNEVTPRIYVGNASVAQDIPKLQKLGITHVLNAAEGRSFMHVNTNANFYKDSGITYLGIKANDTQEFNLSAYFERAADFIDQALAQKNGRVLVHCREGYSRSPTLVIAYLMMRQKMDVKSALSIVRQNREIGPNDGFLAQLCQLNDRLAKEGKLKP
Chain of Photoreceptor-specific nuclear receptor (Q9Y5X4 whole entry, the tested form may be a part): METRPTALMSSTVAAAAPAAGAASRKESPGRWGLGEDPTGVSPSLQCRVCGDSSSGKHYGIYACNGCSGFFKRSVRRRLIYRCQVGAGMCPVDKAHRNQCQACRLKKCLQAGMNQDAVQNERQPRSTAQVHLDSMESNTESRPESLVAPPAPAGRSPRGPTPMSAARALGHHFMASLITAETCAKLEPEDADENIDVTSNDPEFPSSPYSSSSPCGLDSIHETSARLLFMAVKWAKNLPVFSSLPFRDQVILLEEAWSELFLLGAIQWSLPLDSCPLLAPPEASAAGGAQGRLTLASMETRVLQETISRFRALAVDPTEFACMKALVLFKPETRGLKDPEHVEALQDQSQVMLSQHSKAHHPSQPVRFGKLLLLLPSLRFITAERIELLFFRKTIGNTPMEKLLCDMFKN
Chain of Tyrosine-protein phosphatase non-receptor type 5 (P54829 whole entry): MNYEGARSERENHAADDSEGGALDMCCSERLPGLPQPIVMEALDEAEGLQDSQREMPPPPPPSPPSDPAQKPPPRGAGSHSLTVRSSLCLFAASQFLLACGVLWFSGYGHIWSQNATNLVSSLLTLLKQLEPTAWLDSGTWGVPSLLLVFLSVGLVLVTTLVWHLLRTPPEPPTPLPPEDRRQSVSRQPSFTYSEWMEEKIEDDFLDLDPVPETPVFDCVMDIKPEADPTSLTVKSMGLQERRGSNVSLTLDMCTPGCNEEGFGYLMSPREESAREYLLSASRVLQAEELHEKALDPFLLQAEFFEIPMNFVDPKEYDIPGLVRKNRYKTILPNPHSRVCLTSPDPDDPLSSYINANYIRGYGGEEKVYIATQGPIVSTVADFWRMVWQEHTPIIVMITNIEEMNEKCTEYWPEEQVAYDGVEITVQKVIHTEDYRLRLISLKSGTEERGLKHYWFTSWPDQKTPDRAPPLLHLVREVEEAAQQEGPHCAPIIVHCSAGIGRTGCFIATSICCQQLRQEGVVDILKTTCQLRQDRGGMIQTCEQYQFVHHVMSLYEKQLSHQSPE
Chain of Steroidogenic factor 1 (Q13285 whole entry): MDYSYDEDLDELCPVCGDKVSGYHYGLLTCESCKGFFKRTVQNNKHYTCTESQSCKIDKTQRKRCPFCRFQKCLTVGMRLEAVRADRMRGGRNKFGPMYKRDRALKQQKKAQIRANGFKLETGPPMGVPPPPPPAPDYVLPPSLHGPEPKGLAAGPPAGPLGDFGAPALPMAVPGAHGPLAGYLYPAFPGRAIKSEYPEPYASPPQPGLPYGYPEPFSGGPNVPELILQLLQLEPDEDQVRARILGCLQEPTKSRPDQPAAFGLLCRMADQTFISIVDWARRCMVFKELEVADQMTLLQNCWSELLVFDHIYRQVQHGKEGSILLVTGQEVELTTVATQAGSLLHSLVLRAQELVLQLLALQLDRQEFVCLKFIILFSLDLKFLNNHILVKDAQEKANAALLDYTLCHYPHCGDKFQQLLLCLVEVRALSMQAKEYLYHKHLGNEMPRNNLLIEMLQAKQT
Chain of Tyrosine-protein phosphatase non-receptor type 11 (Q06124 whole entry): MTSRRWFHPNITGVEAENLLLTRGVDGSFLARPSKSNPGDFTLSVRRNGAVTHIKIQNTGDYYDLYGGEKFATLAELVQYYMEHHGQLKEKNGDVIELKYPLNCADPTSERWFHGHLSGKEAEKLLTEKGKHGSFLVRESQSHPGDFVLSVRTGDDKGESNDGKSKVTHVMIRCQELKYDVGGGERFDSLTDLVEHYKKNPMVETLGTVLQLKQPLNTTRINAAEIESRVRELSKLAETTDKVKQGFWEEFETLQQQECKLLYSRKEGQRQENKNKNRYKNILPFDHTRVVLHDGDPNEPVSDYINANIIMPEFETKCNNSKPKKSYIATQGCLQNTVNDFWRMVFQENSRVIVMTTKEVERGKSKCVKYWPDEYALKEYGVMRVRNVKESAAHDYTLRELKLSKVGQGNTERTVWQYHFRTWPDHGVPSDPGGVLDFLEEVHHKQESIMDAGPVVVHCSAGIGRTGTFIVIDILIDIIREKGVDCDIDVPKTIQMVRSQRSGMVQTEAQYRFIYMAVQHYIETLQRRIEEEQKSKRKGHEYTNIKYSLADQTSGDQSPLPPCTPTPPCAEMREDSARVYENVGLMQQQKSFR
Chain of Nuclear receptor subfamily 5 group A member 2 (O00482 whole entry): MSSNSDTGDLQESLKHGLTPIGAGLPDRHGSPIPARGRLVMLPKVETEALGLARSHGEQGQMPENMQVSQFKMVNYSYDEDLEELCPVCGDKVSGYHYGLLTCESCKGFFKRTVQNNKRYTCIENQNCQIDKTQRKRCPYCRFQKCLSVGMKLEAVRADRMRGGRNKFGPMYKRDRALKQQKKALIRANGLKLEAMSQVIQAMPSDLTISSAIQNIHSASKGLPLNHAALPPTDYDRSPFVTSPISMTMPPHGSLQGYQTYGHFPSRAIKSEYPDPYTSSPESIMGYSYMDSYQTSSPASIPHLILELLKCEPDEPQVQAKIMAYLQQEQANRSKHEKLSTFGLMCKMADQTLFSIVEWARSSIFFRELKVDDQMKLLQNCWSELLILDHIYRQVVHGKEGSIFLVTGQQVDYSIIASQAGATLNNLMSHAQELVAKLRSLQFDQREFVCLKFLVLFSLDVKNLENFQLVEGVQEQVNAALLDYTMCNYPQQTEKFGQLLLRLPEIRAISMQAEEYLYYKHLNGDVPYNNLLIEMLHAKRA
Chain of Paired box protein Pax-8 (Q06710 whole entry, the tested form may be a part): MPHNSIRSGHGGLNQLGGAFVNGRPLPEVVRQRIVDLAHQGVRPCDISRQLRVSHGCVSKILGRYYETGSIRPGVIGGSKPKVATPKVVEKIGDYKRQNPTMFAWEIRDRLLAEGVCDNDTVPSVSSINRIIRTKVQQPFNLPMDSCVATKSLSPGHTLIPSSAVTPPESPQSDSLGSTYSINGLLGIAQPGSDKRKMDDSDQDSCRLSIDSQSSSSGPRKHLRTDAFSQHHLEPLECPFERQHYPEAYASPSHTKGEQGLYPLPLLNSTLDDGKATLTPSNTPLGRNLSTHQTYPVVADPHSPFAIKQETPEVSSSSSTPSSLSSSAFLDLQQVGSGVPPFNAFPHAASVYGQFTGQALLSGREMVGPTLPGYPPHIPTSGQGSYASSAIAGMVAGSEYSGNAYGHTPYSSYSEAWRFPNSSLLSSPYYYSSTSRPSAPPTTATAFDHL
Chain of Beta Lactamase (Q932Y6 whole entry): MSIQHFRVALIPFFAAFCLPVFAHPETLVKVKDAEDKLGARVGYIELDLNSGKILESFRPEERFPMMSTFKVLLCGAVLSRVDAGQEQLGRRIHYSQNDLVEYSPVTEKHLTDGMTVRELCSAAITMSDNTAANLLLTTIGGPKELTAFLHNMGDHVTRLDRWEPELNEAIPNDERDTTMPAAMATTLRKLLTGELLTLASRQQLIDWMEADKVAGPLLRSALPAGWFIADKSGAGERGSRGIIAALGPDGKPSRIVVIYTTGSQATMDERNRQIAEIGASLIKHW

## Cc1noc(C)c1S(=O)(=O)Nc1ccc(C(=O)N2CCN(c3ccc(Cl)cc3)CC2)cc1
[1]
  IC50: 11.7 µM (inactive)

## CC(C)CNC(=O)c1ccc(C2SCC(=O)N2Cc2ccccc2)cc1 (configuration not stated)
[2]
  IC50: 21.5 µM (inactive)
[3]
  EC50: > 300 µM (not active)
[4]
  EC50: > 300 µM (not active)
[5]
  IC50: 16.7 µM (active)

## CN(C)c1ccc(C(=S)N2CCN(Cc3ccccc3)CC2)cc1
[6]
  IC50: 3.25 µM (active)
[7]
  IC50: 0.937 µM (active)
[8]
  IC50: 23.6 µM (inactive)
[9]
  IC50: 45.6 µM (inactive)

## COc1ccc2c(c1)Cc1sc(NC(=O)c3cccnc3)nc1-2
[10]
  IC50: 3.66 µM (active)
Caspase-3
  IC50: 29.2 µM (active)
[11]
  IC50: 7.97 µM (active)

## CCN(CC)S(=O)(=O)c1ccc(N2CCOCC2)c(NC(=S)NC(=O)c2ccco2)c1
[12]
  IC50: 0.824 µM (active)

## CCCC(NS(=O)(=O)c1ccc(Br)cc1)C(=O)O (configuration not stated)
[13]
  AC50: 1.68 µM (active)

## C=C1C(=O)C23C(O)C1CCC2C12CCCC(C)(COC(C)=O)C1C(O)C3(O)OC2 (configuration not stated)
[14]
  AC50: 11.8 µM (active)
Paired box protein Pax-8
  AC50: 1.86 µM (active)
[15]
  IC50: 1.19 µM (active)
Beta Lactamase
  IC50: 22.1 µM (inactive)
[16]
  AC50: 0.771 µM (active)
[17]
  AC50: 28.9 µM (active)
[18]
  AC50: 3.84 µM (active)

## COc1ccc(OCCNC(=O)C2(C)CCN2Cc2ccc3ccccc3c2)cc1 (configuration not stated)
[19]
  IC50: 35.9 µM (inactive)
[20]
  IC50: 9.8 µM (active)
Steroidogenic factor 1
  IC50: 6.42 µM (active)

## O=C(NCCCN1CCOCC1)C1CC(c2ccc(F)cc2)=NO1 (configuration not stated)
[21]
  EC50: > 100 µM (inactive)

## CCOC(=O)C1=C(C)N=c2s/c(=C\c3ccc(OC(C)=O)c(OCC)c3)c(=O)n2C1/C=C/c1ccccc1 (configuration not stated)
[22]
  IC50: 6 µM (active)

## O/N=C\c1ccc2noc(-c3ccc(Cl)cc3)c2c1
[23]
  IC50: 50.7 µM (inactive)
